Results from PMC6956158, “In Vitro and In Vivo Assessment of Metabolic Drug Interaction Potential of Dutasteride with Ketoconazole” (Pharmaceutics, 2019).
Where two headings read alike, the source gives them in different places.

Key:
[1] = In vivo pharmacokinetic study in rats, intravenous DUT without or with intravenous KET; design: species or system rat; conditions: for AUC(0-inf) / half-life / clearance / Vd: male, Sprague-Dawley, rat, iv, 2.5 mg/kg; for AUC(0-inf) / half-life: n = 4; for Vd: n = 4, read-out: Vss
Description: The animal experiment protocols used in the present study were approved by the Pusan National University-Institutional Animal Care and Use Committee for scientific care and ethical procedures (Busan, Korea; approval date: 01/05/2018; approval number: PNU-2018-1848). Male Sprague–Dawley rats (8-week-old; approximately 250 g) were purchased from DBL Co., Ltd. (Incheon, Korea). The rats were acclimatized in a clean room of the Laboratory Animal Center of Pusan National University (Busan, Korea) for 1 week. Then, they were fasted for 12 h prior to the pharmacokinetic experiment and then anesthetized by intramuscular injection of Zoletil at a dose of 20 mg/kg. The femoral vein and artery of the rats were cannulated with a polyethylene tube (BD Medical; Franklin Lakes, NJ, USA). At approximately 4–6 h after the surgery for cannulation, an intravenous dose of DUT (2.5 mg/kg) simultaneously with or without intravenous KET (20 mg/kg) or an oral dose of DUT (5 mg/kg) simultaneously with or without intravenous KET (20 mg/kg) was administered to the rats. Drugs were dissolved in a vehicle consisting of dimethyl sulfoxide, ethanol, and polyethylene glycol 400 at a ratio of 10:5:85 (v/v/v). Blood (approximately 200 μL) was collected in heparin pre-treated microcentrifuge tubes via the femoral artery at 0, 1, 5, 15, 30, 60, 120, 180, 240, 360, 480, and 1200 min after the intravenous dose and at 0, 5, 15, 30, 60, 120, 150, 180, 240, 360, 480, and 1200 min after the oral dose. Following centrifugation of the blood samples at 3000× g at 4 °C for 10 min [19], 100 μL aliquots of plasma were stored at −80 °C.
The half maximal inhibitory concentration (IC50) of KET for the inhibition of the DUT metabolism was determined by the nonlinear regression analysis (GraphPad Prism ver. 5.01; GraphPad Software Inc., San Diego, CA, USA) based on the following Hill equation: y = Min + Max−Min/1 + (x/IC50)^-P where Max and Min are the initial and final y value, respectively, and the exponent P represents the Hill coefficient. Peak plasma concentration (Cmax) and time to reach Cmax (Tmax) were read directly from the observed data. Non-compartmental analysis was conducted to estimate pharmacokinetic parameters such as total area under plasma concentration versus time curve from time zero to time of last sampling (AUClast), total area under plasma concentration versus time curve from time zero to infinity (AUCinf), total plasma clearance (CL), volume of distribution at steady state (Vss), and terminal half-life (t1/2) using the NCA200 and 201 models of WinNonlin ver. 3.1 (Certara USA Inc., Princeton, NJ, USA).

[2] = Unbound fraction by rapid equilibrium dialysis, human plasma; format: in vitro ADME
Description: To investigate the metabolic interaction potential between DUT and KET, the disappearance of DUT (5 μM) in RLM and HLM was determined under the absence and presence of KET at various concentrations ranging from 1 to 5000 nM. A microsomal reaction mixture was prepared as follows (total volume: 0.2 mL): 1 mM NADPH, 10 mM MgCl2, substrate (DUT), and inhibitor (KET), RLM or HLM (1 mg/mL), and 50 mM phosphate buffer. At 0 and 90 min after starting the metabolic reaction, a 50 μL aliquot of microsomal incubation mixture was sampled and immediately transferred into a clean 1.5 mL microcentrifuge tube containing 100 μL cold ACN with an internal standard (celecoxib at 400 ng/mL) to stop the metabolic reaction. After vortex mixing and centrifugation at 15,000× g for 10 min, a 100 μL aliquot of the supernatant was stored at −80 °C. The unbound fractions of DUT in rat plasma, RLM, human plasma, and HLM were measured using a rapid equilibrium dialysis (RED) device (Thermo Fisher Scientific, Inc., Waltham, MA, USA) as described in a previous study. […] The fraction unbound was calculated as the ratio of the drug concentrations in the “buffer” chamber to those in the “sample” chamber. The blood-to-plasma concentration ratio (RB) of DUT was determined as described previously. […] The concentrations of DUT in the plasma sample were determined by the validated HPLC analysis.

type-1 5AR = system: type-1 5AR; design: method as in PMID 16964191, PMID 16719800; conditions: previous in vitro studies; cited from earlier work
[3] = plasma, intravenous DUT 2.5 mg/kg with intravenous KET 20 mg/kg
[4] = plasma, intravenous DUT 2.5 mg/kg, DUT alone

C[C@]12C=CC(=O)N[C@@H]1CC[C@@H]1[C@@H]2CC[C@]2(C)[C@@H](C(=O)Nc3cc(C(F)(F)F)ccc3C(F)(F)F)CC[C@@H]12 [DUT, Dutasteride]
hepatic extraction ratio ([1]; calculated as CLH/QH, QH 50–80 mL/min/kg): 0.039–0.062 | AUC(0-inf) [1, 3]: 41800 ng·h/mL | half-life [1, 3]: 51 ± 5.98 h | clearance ([1]; plasma, intravenous DUT 2.5 mg/kg with intravenous KET 20 mg/kg, n = 4, read-out: CL): 1.02 ± 0.16 mL/min/kg | Vd [1, 3]: 4.41 ± 0.373 L/kg | AUC(0-inf) [1, 4]: 19100 ng·h/mL | half-life [1, 4]: 26.8 ± 3.27 h | clearance ([1]; plasma, intravenous DUT 2.5 mg/kg, DUT alone, n = 4, read-out: CL): 2.19 ± 0.16 mL/min/kg | Vd [1, 4]: 4.9 ± 0.326 L/kg | clearance ([1]; whole blood, intravenous DUT 2.5 mg/kg, calculated as CL/RB, mean value, read-out: total blood clearance (CLB)): 3.08 mL/min/kg | fraction unbound at 5 μM ([2]; DUT 5 μM, RED device): 0.0078 | fraction of unbound DUT, presence versus absence of KET ([2]; DUT and KET 5 μM, n = 5): no significant differences | more potent inhibition of type-1 5AR compared to finasteride (type-1 5AR): 45 fold
